Experimental findings from patent US20250352541A1, “THERAPEUTIC FOR CANCER REFRACTORY TO IMMUNE CHECKPOINT INHIBITOR” (Sumitomo Pharma Co., Ltd., priority 2022, published 2025) are described below.

A value given as a limit tells only on which side of the number the result lay.

One data set addresses CHK1 (Homo sapiens (Human), UniProt O14757). Briefly: CHK1 inhibitory activity test (IMAP TR-FRET). (TR-FRET usually uses a lanthanide donor and a delayed reading to cut background.)
The next data set concerns the target CYP3A4 (Homo sapiens (Human), UniProt P08684). Nature of the data set: CYP3A4 MBI and enzyme inactivation clearance evaluation. The data set is classed as in vitro ADME. Particulars: for Factor of change in IC50 value: human liver microsome, pre-incubation in the presence of NADPH. As to the method: The effect and mode of inhibition of the test compound on CYP3A4 were evaluated using a human liver microsome as an enzyme source and midazolam or testosterone as a substrate. […] The IC50 value was calculated from a concentration plot.
(Liver microsomes are a subcellular fraction often used to study metabolism.)

The target in the next data set is hERG current (Homo sapiens (Human), UniProt Q12809). Nature of the data set: hERG current blocking test. The following applies: for hERG/CHK1: IC50 of hERG divided by IC50 of CHK1 inhibition; for IC50: read-out: hERG inhibition IC50, hERG expressing CHO cells. (Block of hERG is tested as a sign of cardiac risk.)
A further data set relates to ES-2 cells. Nature of the data set: Cell growth suppression experiment. It is filed as cell-based. The procedure:
ES-2 cells were obtained from the American Type Culture Collection (ATCC). These cells were cultured at 37° C. in the presence of 5% CO2 in a 10% fetal bovine serum, 1% penicillin/streptomycin containing McCoy's 5a medium.
500 cells were seeded for each well in a 384-well plate, and the evaluated compound was added so that the final concentration of DMSO would be 0.1% to culture the cells for 2 days. After completion of the culture, the cell viability rate was calculated using CellTiter-Glo® 3D Reagent (Promega, G968B).
The results of cell growth suppression test on representative compounds of the present disclosure are listed in the following table based on the ranking of I, IT, III, IV, and V (1000 nM<I, 1000 nM>TI>300 nM, 300 nM>III>100 nM, 100 nMV>IV>30 nM, 30 nM>V).

Chain of CHK1 (O14757 whole entry): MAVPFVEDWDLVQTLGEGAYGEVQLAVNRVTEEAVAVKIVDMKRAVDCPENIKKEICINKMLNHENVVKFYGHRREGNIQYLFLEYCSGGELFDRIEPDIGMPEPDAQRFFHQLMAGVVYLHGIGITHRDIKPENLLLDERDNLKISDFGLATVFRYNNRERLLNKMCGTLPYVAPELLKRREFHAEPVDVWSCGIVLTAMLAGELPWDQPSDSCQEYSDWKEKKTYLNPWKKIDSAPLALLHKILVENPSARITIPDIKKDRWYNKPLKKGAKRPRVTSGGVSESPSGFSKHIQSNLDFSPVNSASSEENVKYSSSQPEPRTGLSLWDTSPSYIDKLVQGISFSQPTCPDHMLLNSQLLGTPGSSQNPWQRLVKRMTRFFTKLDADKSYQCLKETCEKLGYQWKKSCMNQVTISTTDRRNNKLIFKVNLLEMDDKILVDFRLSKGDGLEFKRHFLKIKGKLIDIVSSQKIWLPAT
Chain of hERG current (Q12809 whole entry): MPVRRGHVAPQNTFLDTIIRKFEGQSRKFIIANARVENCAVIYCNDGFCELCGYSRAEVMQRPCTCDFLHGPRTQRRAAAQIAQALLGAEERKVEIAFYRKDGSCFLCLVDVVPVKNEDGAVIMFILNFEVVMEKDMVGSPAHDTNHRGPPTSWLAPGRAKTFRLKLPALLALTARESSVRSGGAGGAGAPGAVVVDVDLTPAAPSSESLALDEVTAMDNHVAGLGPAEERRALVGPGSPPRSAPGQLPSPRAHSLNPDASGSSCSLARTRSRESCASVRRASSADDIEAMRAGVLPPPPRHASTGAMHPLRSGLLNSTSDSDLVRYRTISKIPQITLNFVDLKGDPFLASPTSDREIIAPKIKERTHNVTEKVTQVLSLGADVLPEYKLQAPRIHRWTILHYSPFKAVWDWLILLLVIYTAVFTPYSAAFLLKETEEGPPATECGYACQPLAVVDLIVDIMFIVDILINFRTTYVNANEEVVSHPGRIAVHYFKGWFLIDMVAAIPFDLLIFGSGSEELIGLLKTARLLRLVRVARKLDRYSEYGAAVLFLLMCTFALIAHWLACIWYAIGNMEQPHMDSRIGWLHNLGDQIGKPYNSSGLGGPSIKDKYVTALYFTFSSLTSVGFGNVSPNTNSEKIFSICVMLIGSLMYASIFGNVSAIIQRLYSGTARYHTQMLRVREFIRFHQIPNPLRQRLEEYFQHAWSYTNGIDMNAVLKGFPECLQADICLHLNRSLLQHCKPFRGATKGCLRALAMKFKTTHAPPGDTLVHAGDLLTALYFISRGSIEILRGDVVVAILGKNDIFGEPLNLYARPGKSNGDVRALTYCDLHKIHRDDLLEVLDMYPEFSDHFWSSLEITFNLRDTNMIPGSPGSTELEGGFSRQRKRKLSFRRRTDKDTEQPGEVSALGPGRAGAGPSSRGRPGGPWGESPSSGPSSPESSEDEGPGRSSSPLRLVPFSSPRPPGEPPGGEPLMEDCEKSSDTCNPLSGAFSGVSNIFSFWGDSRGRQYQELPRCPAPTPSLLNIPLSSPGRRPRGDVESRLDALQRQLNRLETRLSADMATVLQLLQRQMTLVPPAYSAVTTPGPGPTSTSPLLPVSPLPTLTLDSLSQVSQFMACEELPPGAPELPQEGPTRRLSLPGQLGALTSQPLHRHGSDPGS
Chain of CYP3A4 (P08684 whole entry): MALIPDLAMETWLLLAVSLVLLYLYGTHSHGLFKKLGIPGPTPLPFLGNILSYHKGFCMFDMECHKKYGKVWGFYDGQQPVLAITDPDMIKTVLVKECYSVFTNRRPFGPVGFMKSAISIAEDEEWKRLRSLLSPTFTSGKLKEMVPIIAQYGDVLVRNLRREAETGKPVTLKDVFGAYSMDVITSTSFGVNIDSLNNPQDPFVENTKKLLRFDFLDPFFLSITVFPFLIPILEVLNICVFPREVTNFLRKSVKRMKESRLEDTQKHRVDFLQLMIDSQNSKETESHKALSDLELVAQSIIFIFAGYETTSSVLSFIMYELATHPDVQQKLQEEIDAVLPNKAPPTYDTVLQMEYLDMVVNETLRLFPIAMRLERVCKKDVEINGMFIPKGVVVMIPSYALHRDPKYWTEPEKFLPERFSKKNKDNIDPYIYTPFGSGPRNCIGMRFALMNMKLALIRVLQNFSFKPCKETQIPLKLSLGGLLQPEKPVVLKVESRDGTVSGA

Broadly, the IC50 is the point on the concentration scale where inhibition reaches its midpoint. Consider `COc1nccc(OCC2(CO)CNC2)c1-c1cc(Nc2cnc(C#N)cn2)n[nH]1` [Example 8, 5-{[5-(4-{[3-(hydroxymethyl)azetidin-3-yl]methoxy}-2-methoxypyridin-3-yl)-1H-pyrazol-3-yl]amino}pyrazine-2-carbonitrile], for which, at CHK1, the IC50 was below 0.1 nM and the “effect of suppressing CHK1 activity compared with prexasertib” value is reported as “more potent effect of suppressing CHK1 activity than prexasertib”. Besides, the “Factor of change in IC50 value” at CYP3A4 is “Not Detected”. Besides, at hERG current, the hERG/CHK1 was above 1000000 and the half-inhibitory concentration (IC50) is above 100000 nM.
By inhibition is commonly meant the relative decrease from the control value, in per cent. As to `COc1cncc(OC[C@@H](F)CN)c1-c1cc(Nc2cnc(C#N)cn2)n[nH]1` [Example 29, 5-[(5-{3-[(2S)-3-amino-2-fluoropropoxy]-5-methoxypyridin-4-yl}-1H-pyrazol-3-yl)amino]pyrazine-2-carbonitrile], in the data set with ES-2 cells, the “cell growth suppression effect compared with prexasertib” value is listed as “excellent cell growth suppression effect that is equivalent to that of prexasertib”. The molecule also came in with an IC50 against CHK1 of 0.6 nM. For the same molecule, at CHK1 (read-out: CHK1 inhibition % at 0.1 nM), the inhibition at 0.0001 µM was below 5%. In addition, the “Factor of change in IC50 value” at CYP3A4 is “Not Detected”. Besides, at hERG current, the hERG/CHK1 is on record as 18667 and the IC50 was 11200 nM.
For `COc1cncc(OC[C@H](C)CN)c1-c1cc(Nc2cnc(C#N)cn2)n[nH]1` [Example 28], the “cell growth suppression effect compared with prexasertib” value in the data set on ES-2 cells is “excellent cell growth suppression effect that is equivalent to that of prexasertib”. Besides, at CHK1, the IC50 came out at 0.5 nM and the “effect of suppressing CHK1 activity compared with prexasertib” value is given as “more potent effect of suppressing CHK1 activity than prexasertib”.
As to `COc1ccnc(OCCCN)c1-c1cc(Nc2cnc(Cl)cn2)n[nH]1` [Example 15, N-{5-[2-(3-aminopropoxy)-4-methoxypyridin-3-yl]-1-H-pyrazol-3-yl}-5-chloropyrazin-2-amine], the “cell growth suppression effect compared with prexasertib” value in the data set with ES-2 cells is listed as “excellent cell growth suppression effect that is equivalent to that of prexasertib”. On CHK1, the IC50 came out at 0.26 nM and the “effect of suppressing CHK1 activity compared with prexasertib” value was “more potent effect of suppressing CHK1 activity than prexasertib”.
Take `COc1cncc(O[C@H]2C[C@H](N)[C@H]3C[C@H]32)c1-c1cc(Nc2cnc(C#N)cn2)n[nH]1` [Example 36, 5-{[5-(3-{[(1R,2S,4S,5S)-4-aminobicyclo[3.1.0]hexan-2-yl]oxy}-5-methoxypyridin-4-yl)-1H-pyrazol-3-yl]amino}pyrazine-2-carbonitrile]: in the data set with ES-2 cells, the “cell growth suppression effect compared with prexasertib” value is listed as “excellent cell growth suppression effect that is equivalent to that of prexasertib”. Further, at CHK1, the IC50 came to 0.73 nM.
On the same counts, the results for `COc1ncnc(OCC2(CN)CC2)c1-c1cc(Nc2cnc(C#N)cn2)n[nH]1` [Example 23, 5-{[5-(4-{[1-(aminomethyl)cyclopropyl]methoxy}-6-methoxypyrimidin-5-yl)-1H-pyrazol-3-yl]amino}pyrazine-2-carbonitrile] are “excellent cell growth suppression effect that is equivalent to that of prexasertib” and 0.79 nM.
Consider `COc1cncc(OC[C@]2(F)CCNC2)c1-c1cc(Nc2cnc(C#N)cn2)n[nH]1` [Example 20, (S)-5-[(5-{3-[(3-fluoropyrrolidin-3-yl)methoxy]-5-methoxypyridin-4-yl}-1H-pyrazol-3-yl)amino]pyrazine-2-carbonitrile], for which, in the data set on ES-2 cells, the “cell growth suppression effect compared with prexasertib” value is on record as “excellent cell growth suppression effect that is equivalent to that of prexasertib”. In addition, on CHK1, the IC50 was 0.34 nM and the “effect of suppressing CHK1 activity compared with prexasertib” value is recorded as “more potent effect of suppressing CHK1 activity than prexasertib”. Moreover, on hERG current, the hERG/CHK1 was 11176 and the IC50 amounted to 3800 nM.
As to `COc1ccnc(OCC2(CN)CC2)c1-c1cc(Nc2cnc(C#N)cn2)n[nH]1` [Example 37, 5-{[5-(2-{[1-(aminomethyl)cyclopropyl]methoxy}-4-methoxypyridin-3-yl)-1H-pyrazol-3-yl]amino}pyrazine-2-carbonitrile], the “cell growth suppression effect compared with prexasertib” value in the data set on ES-2 cells is listed as “excellent cell growth suppression effect that is equivalent to that of prexasertib”. Also, at CHK1, half-maximal inhibition (IC50) required 0.32 nM and the “effect of suppressing CHK1 activity compared with prexasertib” value was “more potent effect of suppressing CHK1 activity than prexasertib”. Besides, at CYP3A4, the “inhibition of CYP3A4 based on MBI” value was “do not exhibit inhibition of CYP3A4 based on MBI” and the “Factor of change in IC50 value” is given as “Not Detected”. For the same molecule, at hERG current, the hERG/CHK1 is given as below 8438 and the IC50 is below 2700 nM.
For `COc1cncc(OC[C@@]2(F)CCNC2)c1-c1cc(Nc2cnc(C#N)cn2)n[nH]1` [Example 22, (R)-5-[(5-{3-[(3-fluoropyrrolidin-3-yl)methoxy]-5-methoxypyridin-4-yl}-1H-pyrazol-3-yl)amino]pyrazine-2-carbonitrile], in the data set with ES-2 cells, the “cell growth suppression effect compared with prexasertib” value is “excellent cell growth suppression effect that is equivalent to that of prexasertib”. For the same molecule, on CHK1, half-maximal inhibition (IC50) required 0.24 nM and the “effect of suppressing CHK1 activity compared with prexasertib” value is recorded as “more potent effect of suppressing CHK1 activity than prexasertib”. Besides, at hERG current, the hERG/CHK1 was 12500 and the IC50 was 3000 nM.
Turning to `COc1cncc(OC[C@@H]2CNCCO2)c1-c1cc(Nc2cnc(C#N)cn2)n[nH]1` (stereo in doubt) [Example 12, 5-[(5-{3-methoxy-5-[(morpholin-2-yl)methoxy]pyridin-4-yl}-1H-pyrazol-3-yl)amino]pyrazine-2-carbonitrile], on CHK1, the half-maximal inhibitory concentration (IC50) was 0.34 nM and the “effect of suppressing CHK1 activity compared with prexasertib” value is reported as “more potent effect of suppressing CHK1 activity than prexasertib”. In addition, at hERG current, the hERG/CHK1 turned out to be 9118 and the IC50 was 3100 nM.
With `COc1cncc(OC[C@H]2CNCCO2)c1-c1cc(Nc2cnc(C#N)cn2)n[nH]1` (stereo in doubt) [Example 13, 5-[(5-{3-methoxy-5-[(morpholin-2-yl)methoxy]pyridin-4-yl}-1H-pyrazol-3-yl)amino]pyrazine-2-carbonitrile], the values for the IC50 at CHK1 and at hERG current were 0.74 nM and below 2700 nM, respectively. The hERG/CHK1 at hERG current is on record as below 3649.
On the same counts, the results for `COc1ccnc(OCCCN)c1-c1cc(Nc2cnc(C(F)(F)F)cn2)n[nH]1` [Example 16, N-{5-[2-(3-aminopropoxy)-4-methoxypyridin-3-yl]-1-H-pyrazol-3-yl}-5-(trifluoromethyl)pyrazin-2-amine] are 3.04 nM, below 2700 nM and below 888.
As to `CN[C@@H]1CC[C@@H](Oc2cncc(OC)c2-c2cc(Nc3cnc(C#N)cn3)n[nH]2)C1` [Example 35, 5-{[5-(3-methoxy-5-{[(1R,3R)-3-(methylamino)cyclopentyl]oxy}pyridin-4-yl)-1H-pyrazol-3-yl]amino}pyrazine-2-carbonitrile], in the data set with ES-2 cells, the “cell growth suppression effect compared with prexasertib” value was “excellent cell growth suppression effect that is equivalent to that of prexasertib”. This molecule came in with an IC50 on CHK1 of 0.62 nM.
As to `COc1nccc(OCCCN)c1-c1cc(Nc2cnc(C#N)cn2)n[nH]1` [Example 4, 5-({5-[4-(3-aminopropoxy)-2-methoxypyridin-3-yl]-1H-pyrazol-3-yl}amino)pyrazine-2-carbonitrile], the “cell growth suppression effect compared with prexasertib” value in the data set with ES-2 cells was “excellent cell growth suppression effect that is equivalent to that of prexasertib”. Moreover, on CHK1, the IC50 stood at 0.23 nM and the “effect of suppressing CHK1 activity compared with prexasertib” value was “more potent effect of suppressing CHK1 activity than prexasertib”.
Take `COc1nccc(OCC2(CN)CC2)c1-c1cc(Nc2cnc(C#N)cn2)n[nH]1` [Example 38, 5-{[5-(4-{[1-(aminomethyl)cyclopropyl]methoxy}-2-methoxypyridin-3-yl)-1H-pyrazol-3-yl]amino}pyrazine-2-carbonitrile]: the “cell growth suppression effect compared with prexasertib” value with ES-2 cells is listed as “excellent cell growth suppression effect that is equivalent to that of prexasertib”. Also, at CHK1, it took 0.7 nM to reach half-maximal inhibition (IC50).
Turning to `COc1cncc(OC[C@H]2CCNC2)c1-c1cc(Nc2cnc(C#N)cn2)n[nH]1` [Example 21, (S)-5-[(5-{3-methoxy-[5-(pyrrolidin-3-yl)methoxy]pyridin-4-yl}-1H-pyrazol-3-yl)amino]pyrazine-2-carbonitrile], the “cell growth suppression effect compared with prexasertib” value in the data set with ES-2 cells is recorded as “excellent cell growth suppression effect that is equivalent to that of prexasertib”. Besides, on CHK1, the midpoint of inhibition, the IC50, lay at 0.29 nM and the “effect of suppressing CHK1 activity compared with prexasertib” value was “more potent effect of suppressing CHK1 activity than prexasertib”.
With `COc1cncc(O[C@H](C)C2CNC2)c1-c1cc(Nc2cnc(C#N)cn2)n[nH]1` [Example 33, 5-[(5-{3-[(1R)-1-(azetidin-3-yl)ethoxy]-5-methoxypyridin-4-yl}-1H-pyrazol-3-yl)amino]pyrazine-2-carbonitrile], in the data set with ES-2 cells, the “cell growth suppression effect compared with prexasertib” value is “excellent cell growth suppression effect that is equivalent to that of prexasertib”. The IC50 against CHK1 is 0.69 nM.
